Measured values: US20260000686A1, “CANNABIDIOL COMPOSITIONS FOR THE TREATMENT OF INFLAMMATION” (RevRx, LLC, priority 2019, published 2026)

Test system: patient (joint, muscle, and arthritic aches and pains)
Experiment: Case studies: patient-reported pain relief with topical Cryogel and with previously tried treatments
Assay type: in vivo, human
[1] = Case #19: bilateral inflammation of the knees post exercise/running
[2] = Case #2: chronic knee pain and muscle soreness
[3] = Case #7: chronic lower back pain, history of RA
[4] = Case #8: diabetic, peripheral neuropathy pain in feet
[5] = Case #21: inflammation of the right knee

COc1ccc2cc([C@H](C)C(=O)[O-])ccc2c1.[Na+] [ALEVER]
relief from previously tried treatment (patient-reported) (Case #5: sore/stiff neck): limited relief

Cc1ccc(-c2cc(C(F)(F)F)nn2-c2ccc(S(N)(=O)=O)cc2)cc1 [Celebrex]
relief from previously tried treatment (patient-reported) [1]: Limited Relief

CC(C)Cc1ccc(C(C)C(=O)O)cc1 (stereo not shown) [Ibuprofen]
relief from previously tried treatment (patient-reported) [2]: mild pain relief | relief from previously tried treatment (patient-reported) (Case #4: chronic knee pain and muscle soreness): minimal relief | relief from previously tried treatment (patient-reported) [3]: limit pain relief | relief from previously tried treatment (patient-reported) [4]: limit pain relief | relief from previously tried treatment (patient-reported) (Case #9: quad pain associated with exercise): no relief | relief from previously tried treatment (patient-reported) (Case #10: Tennis Elbow of the right elbow): No relief | relief from previously tried treatment (patient-reported) (Case #11: upper left trapezius muscle pain): No relief | relief from previously tried treatment (patient-reported) (Case #14: right calf muscle pain): limited relief | relief from previously tried treatment (patient-reported) (Case #15: ankle swelling and soreness): limited relief | relief from previously tried treatment (patient-reported) (Case #16: labrum tear post-surgical repair, pain and soreness): limited relief | relief from previously tried treatment (patient-reported) (Case #17: sciatica nerve pain, upper right hip area): limited relief | relief from previously tried treatment (patient-reported) (Case #18: burning, stinging pain and inflammation in upper right elbow): limited relief | relief from previously tried treatment (patient-reported) [1]: limited relief | relief from previously tried treatment (patient-reported) [5]: Limited Relief

CC(C)C[C@H](CN)CC(=O)O [LYRICA®]
relief from previously tried treatment (patient-reported) [4]: limit pain relief

COc1ccc2cc([C@H](C)C(=O)O)ccc2c1 [Naproxen]
relief from previously tried treatment (patient-reported) [2]: mild pain relief | relief from previously tried treatment (patient-reported) [3]: limit pain relief | relief from previously tried treatment (patient-reported) (Case #13: quadricep tear or strain, right leg muscle pain): limited relief

COc1ccc2c3c1O[C@H]1C(=O)CC[C@@]4(O)[C@@H](C2)N(C)CC[C@]314.Cl [OxyContin®]
pain score (Case #1: RA, spinal fusion C3-C4, immediately post-op while taking prescription pain management medication, 1 no-pain, 10 most pain): 10

Clc1ccc2nsnc2c1NC1=NCCN1 [Tizanidine]
relief from previously tried treatment (patient-reported) [3]: limit pain relief

COc1cccc(C2(O)CCCCC2CN(C)C)c1 (stereo not shown) [Tramadol]
relief from previously tried treatment (patient-reported) [3]: limit pain relief

CC(=O)Nc1ccc(O)cc1 [Tylenol]
relief from previously tried treatment (patient-reported) [1]: Limited relief | relief from previously tried treatment (patient-reported) [5]: No relief
